Here are results for 40 compounds from patent publication US20190330189A1, “ANTIBACTERIAL COMPOUNDS” (Janssen Sciences Ireland UC, priority 2015, published 2019).

Series [1] has as its system Mycobacterium tuberculosis strain EH 4.0 (361.269). The experiment in a line: Test 4: MIC determination, resazurin fluorescence, strain EH 4.0. It counts as cell-based. To be noted: for IC50: Mycobacterium tuberculosis, read-out: pIC50, Test 4, M. tuberculosis strain EH 4.0 (361.269) (converted); for pIC50: Test 4, M. tuberculosis strain EH 4.0 (361.269). The source says:
TEST 4 (See Also Test 1 Above; in this Test a Different Strain of Mycobacterium tuberculosis Strain is Employed)
Appropriate solutions of experimental and reference compounds were made in 96 well plates with 7H9 medium. Samples of Mycobacterium tuberculosis strain EH 4.0 (361.269) were taken from cultures in stationary growth phase. These were first diluted to obtain an optical density of 0.3 at 600 nm wavelength and then diluted 1/100, resulting in an inoculum of approximately 5×10 exp5 colony forming units per well. Plates were incubated at 37° C. in plastic bags to prevent evaporation. After 7 days, resazurin was added to all wells.

Series [2] relates to Mycobacterium tuberculosis strain H37Rv. The experiment in a line: Test 1: MIC determination, resazurin fluorescence, M. tuberculosis H37Rv. It counts as cell-based. The note with it: for IC50: Mycobacterium tuberculosis, H37RV.
Where [3] appears, read: Test 1, repeated (2nd) test, read-out: pIC50 * (converted).
[4] abbreviates: Test 1, repeated (3rd) test, read-out: pIC50 ** (converted).
[5] abbreviates: Test 1, M. tuberculosis H37Rv, first test.
The mark [6] stands for this setting: Test 1, M. tuberculosis H37Rv, first test, read-out: pIC50 (converted).

Where two headings read alike, the source gives them in different places.

The compound `CCc1nc2ncc(Cl)cn2c1C(=O)NCc1ccc(N2CC3(CC(OC)C3)C2)cc1` [Compound 86] returned a melting point of 127.22 °C. Moreover, the IC50 in series [1] is 158 nM.
`CCc1nc2ncc(Cl)cn2c1C(=O)NCc1ccc(N2CCC3(CC2)CC(F)(F)C3)cc1` [Compound 133] gave a melting point of 84.29 °C. The IC50 in series [1] is 2 nM.
Taken in the same sequence, the figures for `CCc1nc2n(c1C(=O)NCc1ccc(N3CC4(CC(c5ccc(OC(F)(F)F)cc5)C4)C3)cc1)CCCC2` [Compound 82] were 190.78 °C and 63.1 nM.
Taken in the same sequence, the figures for `CCc1nn2c(Cl)cccc2c1C(=O)NCc1ccc(C2CC3(C2)CN(c2ccc(OC(F)(F)F)cc2)C3)cc1` [Compound 146] were 119.23 °C and 316 nM.
Taken in the same sequence, the figures for `Cc1nc2sc(F)cn2c1C(=O)NCc1ccc(N2CC3(CC(=O)C3)C2)cc1` [Compound 118] were 201.34 °C and 12600 nM.
As for `Cc1nc2sc(Cl)cn2c1C(=O)NCc1ccc(N2CC3(CC(=O)C3)C2)cc1` [Compound 129], the melting point was determined as 188.46 °C. Moreover, in series [1], the IC50 is 398 nM and the pIC50 amounted to 6.5.
Consider `CCc1nc2ccc(Cl)cn2c1C(=O)NCc1ccc(N2CC3(CCN(c4ccc(OC(F)(F)F)cc4)C3)C2)cc1` [Compound 76], for which the melting point was 136.04 °C. Also, the IC50 in series [1] was 25.1 nM.
Taken in the same sequence, the figures for `CCc1nc2ccc(Cl)cn2c1C(=O)NCc1ccc(N2CC3(CC(=O)C3)C2)cc1` [Compound 96] were 182.82 °C and 126 nM.
Take `CCc1nc2ccc(Cl)cn2c1C(=O)NCc1ccc(N2CC3(CC(F)C3)C2)cc1` [Compound 17]: the IC50 was 316 nM in series [2] (setting [3]) and 468 nM in series [2] (setting [4]). Besides, the pIC50 in series [2] (setting [5]) stood at 7.82; in series [1], 7.4.
With `Cc1nc2sccn2c1C(=O)NCc1ccc(N2CC3(CC(c4ccc(OC(F)(F)F)cc4)C3)C2)cc1` [Compound 24], the IC50 in series [2] (read-out: pIC50 (converted)) is 200 nM; in series [2] (read-out: pIC50 * (converted)) it was 275 nM; in series [2] (read-out: pIC50 ** (converted)) it was 115 nM; in series [1] it was 251 nM.
For the compound `CCc1nc2ncc(Cl)cn2c1C(=O)NCc1ccc(N2CC3(CC(=O)C3)C2)cc1` [Compound 126], the melting point worked out at 187.49 °C. Also, in series [1], the IC50 was 10000 nM and the pIC50 is 4.9.
In turn, `CCc1nc2ccc(Cl)cn2c1C(=O)NCc1ccc(N2CC3(CC(OC(F)(F)F)C3)C2)cc1` [Compound 117] returned a melting point of 167.85 °C. In addition, the IC50 in series [1] is 20 nM.
Turning to `CCc1nc2sc(C)cn2c1C(=O)NCc1ccc(N2CC3(CC(F)C3)C2)cc1` [Compound 18], the IC50 in series [2] (setting [6]) is 191 nM; in series [2] (setting [3]), 123 nM; in series [2] (setting [4]) it was 126 nM; in series [1], 31.6 nM.
As for `CCc1nc2ccc(Cl)cn2c1C(=O)NCc1ccc(N2CCC3(CC2)CC(F)(F)C3)cc1` [Compound 125], the melting point is 146.77 °C. Moreover, the IC50 in series [1] was 2 nM.
Taken in the same sequence, the figures for `CCc1nn2c(OC)cccc2c1C(=O)NCc1ccc(C2CC3(C2)CN(c2ccc(OC(F)(F)F)cc2)C3)cc1` [Compound 147] were 151.74 °C and 1260 nM.
As for `CCc1nc2ncc(Cl)cn2c1C(=O)NCc1ccc(C2CC3(C2)CN(c2ccc(OC(F)(F)F)cc2)C3)cc1` [Compound 3], the IC50 in series [2] (setting [6]) is 25.7 nM; in series [2] (setting [3]), 26.3 nM; in series [2] (setting [4]) it was 25.7 nM; in series [1] it was 5.01 nM.
For the compound `CCc1nc2ccc(Cl)cn2c1C(=O)NCC1CC2(CCN(c3ccc(OC(F)(F)F)cc3)CC2)C1` [Compound 15], the values for the IC50 in series [2] (setting [6]), in series [2] (setting [3]) and in series [1] were 102 nM, 95.5 nM and 158 nM, respectively.
As for `CCc1nc2ccc(Cl)cn2c1C(=O)NCc1ccc(N2CC3(CCN(c4ccc(OC(F)(F)F)cc4)CC3)C2)cc1` [Compound 28], the IC50 in series [2] (setting [6]) is 6030 nM; in series [2] (setting [3]) it was 7590 nM; in series [2] (setting [4]), 7410 nM; in series [1], 3.16 nM.
Turning to `CCc1nc2ccc(Cl)cn2c1C(=O)NCc1ccc(N2CC3(CC(c4ccc(OC(F)(F)F)cc4)C3)C2)cc1` [Compound 7], the IC50 in series [2] (setting [6]) was 100 nM; in series [2] (setting [3]) it was 75.9 nM; in series [2] (setting [4]), 79.4 nM; in series [1] it was 15.8 nM.
In the same order, the values of `CCc1nc2n(c1C(=O)NCc1ccc(N3CC4(CC(F)C4)C3)cc1)CCCC2` [Compound 19] are 794 nM, 1150 nM, 1070 nM and 1260 nM.
Taken in the same sequence, the figures for `CCc1nc2ccc(Cl)cn2c1C(=O)NCc1ccc(N2CC3(CC(c4ccc(S(F)(F)(F)(F)F)cc4)C3)C2)cc1` [Compound 10] were 148 nM, 141 nM, 107 nM and 31.6 nM.
In the same order, the values of `Cc1nc2sc(Br)cn2c1C(=O)NCc1ccc(N2CC3(CCC3)C2)cc1` [Compound 13] are 269 nM, 257 nM, 263 nM and 31.6 nM.
Consider `CCc1nc2ccc(Cl)cn2c1C(=O)NCC1CCC2(CCN(c3ccc(OC(F)(F)F)cc3)CC2)CO1` (centres unmarked) [Compound 14], for which the IC50 was 2820 nM in series [2] (setting [6]), 2950 nM in series [2] (setting [3]) and 398 nM in series [1].
As for `CCc1nc2sc(C)cn2c1C(=O)NCc1ccc(N2CC3(COC3)C2)cc1` [Compound 27], the IC50 in series [2] (setting [6]) was 4070 nM; in series [2] (setting [3]), 4170 nM; in series [2] (setting [4]), 2880 nM; in series [1], 398 nM.
Consider `CCc1nc2ccc(Cl)cn2c1C(=O)NCC1CC12CCN(c1ccc(OC(F)(F)F)cc1)CC2` (centres unmarked) [Compound 1], for which the IC50 was 9.33 nM in series [2] (read-out: pIC50 (converted)) and 13.2 nM in series [2] (read-out: pIC50 * (converted)). For the same compound, the pIC50 in series [1] amounted to 7.0.
`Cc1nc2sccn2c1C(=O)NCc1ccc(N2CC3(COC3)C2)cc1` [Compound 30]: the IC50 in series [2] (setting [6]) is 8910 nM; in series [2] (setting [3]), > 12600 nM; in series [2] (setting [4]), 11000 nM; in series [1], 7940 nM.
In the same order, the values of `CCc1nc2ncc(Cl)cn2c1C(=O)NCc1ccc(N2CC3(CC(c4ccccc4)C3)C2)cc1` [Compound 9] are 83.2 nM, 72.4 nM, 53.7 nM and 12.6 nM.
Taken in the same sequence, the figures for `CCc1nc2ncc(Cl)cn2c1C(=O)NCc1ccc(N2CC3(CC(c4cccnc4)C3)C2)cc1` [Compound 11] were 1860 nM, 3020 nM, 1200 nM and 794 nM.
Taken in the same sequence, the figures for `CCc1c(C(=O)NCc2ccc(N3CC4(CC(F)C4)C3)cc2)c2ccncc2n1C` [Compound 31] were > 12600 nM, > 12600 nM, > 12600 nM and > 12600 nM.
For the compound `CCc1nc2ccc(Cl)cn2c1C(=O)NCc1ccc(C2CC3(C2)CN(c2ccc(OC(F)(F)F)cc2)C3)cc1` [Compound 2], the IC50 was 16.2 nM in series [2] (setting [6]), 14.8 nM in series [2] (setting [3]), 11.7 nM in series [2] (setting [4]) and 50.1 nM in series [1].
In the case of `CCc1nc2ccc(Cl)cn2c1C(=O)NCc1ccc(N2CC3(CC(F)C3)C2)cc1` [Compound 16], the pIC50 was 6.55 in series [2] (setting [5]) and 8.0 in series [1]. The “pIC50 *” value in series [2] (Test 1, repeated (2nd) test) was determined as 6.61.
For `CCc1nc2sc(C)cn2c1C(=O)NCc1ccc(N2CC3(CC(=O)C3)C2)cc1` [Compound 21], the IC50 is 2450 nM in series [2] (read-out: pIC50 (converted)), 1050 nM in series [2] (read-out: pIC50 * (converted)), 1380 nM in series [2] (read-out: pIC50 ** (converted)) and 100 nM in series [1].
Take `CCc1nc2ncc(Cl)cn2c1C(=O)NCc1ccc(N2CC3(CC(c4ccc(OC(F)(F)F)cc4)C3)C2)cc1` [Compound 8]: the IC50 was 148 nM in series [2] (setting [6]), 186 nM in series [2] (setting [3]), 170 nM in series [2] (setting [4]) and 50.1 nM in series [1].
On to `CCc1nc2ccc(Cl)cn2c1C(=O)NC1CCC2(CC1)CCN(c1ccc(OC(F)(F)F)cc1)CC2` [Compound 29], for which the IC50 is 7940 nM in series [2] (setting [6]), 6760 nM in series [2] (setting [3]), 7080 nM in series [2] (setting [4]) and 7940 nM in series [1].
Turning to `CCc1nc2n(c1C(=O)NCc1ccc(N3CC4(C3)CN(c3ccc(OC(F)(F)F)cc3)C4)cc1)CCCC2` [Compound 6], the IC50 in series [2] (setting [6]) was 141 nM; in series [2] (setting [3]) it was 102 nM; in series [2] (setting [4]), 129 nM; in series [1] it was 25.1 nM.
As to `CCc1nc2cnc(Cl)cn2c1C(=O)NCC1CC12CCN(c1ccc(OC(F)(F)F)cc1)CC2` (centres unmarked) [Compound 54], the IC50 in series [1] was 7940 nM.
On the same count and under the same terms, then `CCc1nc2cn(C)ccc-2c1C(=O)NCC1CC2(CCN(c3ccc(OC(F)(F)F)cc3)CC2)C1` [Compound 50], with > 12600 nM.
Take `O=C(NCc1ccc(N2CC3(CC(c4ccc(OC(F)(F)F)cc4)C3)C2)cc1)c1cc2c([nH]1)CCCC2` [Compound 37]: the IC50 in series [1] is 3980 nM.
`CCc1nc2cnc(Cl)cn2c1C(=O)NCC1CC2(CCN(c3ccc(OC(F)(F)F)cc3)CC2)C1` [Compound 101]: the IC50 in series [1] is 1580 nM.
`CCc1nc2ncc(Cl)cn2c1C(=O)NCc1ccc(N2CC3(CC(OC(F)F)C3)C2)cc1` registered a melting point of 163.21 °C.
